# B1: Wnt-7a: Wnt ligand (Catalog #3008-WN-025, R&D Systems, MN) (protein, UniProt O00755 32-349, looked up)
# Protein Wnt-7a: LGASIICNKIPGLAPRQRAICQSRPDAIIVIGEGSQMGLDECQFQFRNGRWNCSALGERTVFGKELKVGSREAAFTYAIIAAGVAHAITAACTQGNLSDCGCDKEKQGQYHRDEGWKWGGCSADIRYGIGFAKVFVDAREIKQNARTLMNLHNNEAGRKILEENMKLECKCHGVSGSCTTKTCWTTLPQFRELGYVLKDKYNEAVHVEPVRASRNKRPTFLKIKKPLSYRKPMDTDLVYIEKSPNYCEEDPVTGSVGTQGRACNKTAPQASGCDLMCCGRGYNTHQYARVWQCNCKFHWCCYVKCNTCSERTEMYTCK
# B2: DKK1: Wnt Inhibitor; inhibitor of Wnt-3 signaling (protein, UniProt O94907 32-266, looked up)
# Dickkopf-related protein 1: TLNSVLNSNAIKNLPPPLGGAAGHPGSAVSAAPGILYPGGNKYQTIDNYQPYPCAEDEECGTDEYCASPTRGGDAGVQICLACRKRRKRCMRHAMCCPGNYCKNGICVSSDQNHFRGEIEETITESFGNDHSTLDGYSRRTTLSSKMYHTKGQEGSVCLRSSDCASGLCCARHFWSKICKPVLKEGQVCTKHRRKGSHGLEIFQRCYCGEGLSCRIQKDHHQASNSSRLHTCQRH
# B3: BMP-4: BMP-4 (Catalog #314-BP-010, R&D Systems, MN) (protein, UniProt P12644 293-408, looked up)
# Bone morphogenetic protein 4: SPKHHSQRARKKNKNCRRHSLYVDFSDVGWNDWIVAPPGYQAFYCHGDCPFPLADHLNSTNHAIVQTLVNSVNSSIPKACCVPTELSAISMLYLDEYDKVVLKNYQEMVVEGCGCR
# B4: Wnt-5b: Wnt ligand (Catalog #3006-WN-025, R&D Systems, MN) (protein, UniProt Q9H1J7 18-359, looked up)
# Protein Wnt-5b: QLLTDANSWWSLALNPVQRPEMFIIGAQPVCSQLPGLSPGQRKLCQLYQEHMAYIGEGAKTGIKECQHQFRQRRWNCSTADNASVFGRVMQIGSRETAFTHAVSAAGVVNAISRACREGELSTCGCSRTARPKDLPRDWLWGGCGDNVEYGYRFAKEFVDAREREKNFAKGSEEQGRVLMNLQNNEAGRRAVYKMADVACKCHGVSGSCSLKTCWLQLAEFRKVGDRLKEKYDSAAAMRVTRKGRLELVNSRFTQPTPEDLVYVDPSPDYCLRNESTGSLGTQGRLCNKTSEGMDGCELMCCGRGYNQFKSVQVERCHCKFHWCCFVRCKKCTEIVDQYICK
# B5: Wnt-5a: Wnt ligand (Catalog #654-WN-010, R&D Systems, MN) (protein, UniProt P41221 62-380, looked up)
# Protein Wnt-5a: IIGAQPLCSQLAGLSQGQKKLCHLYQDHMQYIGEGAKTGIKECQYQFRHRRWNCSTVDNTSVFGRVMQIGSRETAFTYAVSAAGVVNAMSRACREGELSTCGCSRAARPKDLPRDWLWGGCGDNIDYGYRFAKEFVDARERERIHAKGSYESARILMNLHNNEAGRRTVYNLADVACKCHGVSGSCSLKTCWLQLADFRKVGDALKEKYDSAAAMRLNSRGKLVQVNSRFNSPTTQDLVYIDPSPDYCVRNESTGSLGTQGRLCNKTSEGMDGCELMCCGRGYDQFKTVQTERCHCKFHWCCYVKCKKCTEIVDQFVCK
# Experiments:
# H9P44 cells = assay: RT-PCR of definitive endoderm markers, growth factor combinations in low serum on MEFs (Example 22); format: cell-based, human; conditions: H9P44 on MEF; Day 3; normalized to Group 1 (control)
# Description: (§1) Real-time PCR amplification and quantitative analysis.
# (§2) Final data were expressed relative to a calibrator sample.
# H9P44 cells were plated onto 6 well plates previously coated with mitomycin treated mouse embryonic fibroblasts (MEF). Cells were grown until 70 to 80% confluency in ES cell medium consisting of DMEM/F12 (Invitrogen/GIBCO) supplemented with 20% knockout serum replacement, 100 nM MEM nonessential amino acids, 0.5 mM beta-mercaptoethanol, 2 mM L-glutamine (all from Invitrogen/GIBCO) and 8 ng/ml human basic fibroblast growth factor (bFGF) (R&D Systems).
# Growth factors were added to increasing concentration of FBS in a stepwise manner as indicated in the following regimen: • Day 0: 0% FBS in DMEM/F12 • Day 1: 0.5% FBS in DMEM/F12 • Day 2: 2% FBS in DMEM/F12. • Day 3: Cells were harvested for FACS analysis and RT-PCR.
# All growth factors were purchased from R&D Systems, MN. A detailed description and concentration of growth factors for each treatment group is shown below.
# For RT-PCR analysis, cells were analyzed for expression of selected panel of definitive endoderm markers.
# [1] = system: human embryonic stem cells (H9, H7) on MATRIGEL; assay: Real-time PCR of definitive endoderm markers, DE protocol on […] or fibronectin (feeder-free); format: cell-based; conditions: for definitive endoderm markers (real-time PCR): H7 and H9, low serum+AA+/−Wnt ligands, 5 days
# Description: as §1, §2
# Differentiation of embryonic stem cells to definitive endoderm was carried out as previously described in Nature Biotechnology 23, 1534-1541 (December 2005). […] In all subsequent examples unless otherwise noted, this treatment regimen will be referred to as the definite endoderm (DE) protocol. In parallel, H9, H7, or H1 cells cultured on MEF feeders were also exposed to the same DE protocol outlined above.
# At day 5, the cultures were analyzed by FACS for CXCR4, E-cadherin, CD9, CD99, and N-cadherin (CD56) expression and by real time PCR for SOX-17, SOX-7, Alpha-fetal protein (AFP), CXCR4, Brychyury (Bry), gooscecoid (GSC), HNF-3 beta, and GATA4. AFP and SOX-7 are regarded as visceral endoderm markers while GATA4, HNF-3beta and SOX-17 represent definite endoderm markers and GSC, Bry, and CXCR4 represent markers of primitive streak.
# In some of the cultures 20 ng/ml Wnt-3a (Catalog #1324-WN-002, R&D Systems, MN), 20 ng/ml Wnt-5a (Catalog #654-WN-010, R&D Systems, MN), 25 ng/ml Wnt-7a (Catalog #3008-WN-025, R&D Systems, MN), or 25 ng/ml Wnt-5b (Catalog #3006-WN-025, R&D Systems, MN) was added throughout the five day treatment. FIG. 24 depicts phase contrast images of H9P46 definitive endoderm culture in the presence of high concentration of (a) AA or (b) AA+20 ng/ml Wnt-3a. FIG. 25 depicts the expression of CXCR4 by FACS at day 5 for H7P44, and H9P46 lines cultured on […] (1:30 dilution) and exposed to the DE protocol+Wnt-3a (FIG. 25, panels b and d) and −Wnt-3a (FIG. 25, panels a and c).
# Control cultures were not treated with Wnt-3a. FIG. 27, panel a depicts the expression of CXCR4 by FACS at day 5 in the absence of Wnt-3a, b) 10 ng/ml Wnt-3a, c) 20 ng/ml Wnt-3a and d) 50 ng/ml Wnt-3a. In the absence of Wnt-3a the expression of CXCR4 was very low. […] Real-time PCR results (FIG. 28, panel a) also confirm this finding.
# In a separate study, H9 p52 cells were plated on 1:30 low growth factor […]™. For the first 2 days of the DE protocol a range of Wnt3A doses was used: 10 ng/ml, 5 ng/ml and 1 ng/ml. […] The number of cells at the end of the experiment is noted in FIG. 28, panel c.
# In order to confirm that the effect of Wnt-3a was through the Wnt pathway, a GSK-3 inhibitor was used to activate the downstream targets of Wnt, such as beta catenin. […] FIG. 29, panel a depicts the expression of CXCR4 by FACS at day 5 in the absence of Wnt-3a or GSK-3B inhibitor, b) +20 ng/ml Wnt-3a, c) +1000 nM GSK-3B inhibitor IX, d) +500 nM GSK-3B inhibitor IX, e) +100 nM GSK-3B inhibitor IX, f) +10 nM GSK-3B inhibitor IX, g) +100 nM GSK-3B inhibitor IX for days 1-2, and h) +10 nM GSK-3B inhibitor IX for days 1-2.
# FIG. 31 panels a-d is for H9P49 cells and panels e-f is for H1P46 cells.
# Results are expressed as fold increase over untreated cells. […] Results are expressed as fold increase over untreated cells.
# H9P55 cells were grown and differentiated on human fibronectin or regular growth factor […]™ (BD Biosciences). lml of DMEM/F12 (Invitrogen/GIBCO) containing 1 ug/ml of human fibronectin (R&D systems, MN) was added to each well of 6 well tissue culture treated dish. Alternatively, regular growth factor […]™ was diluted 1:10 in DMEM/F12 and 1 ml of diluted […]™ was added to each well of 6 well tissue culture treated dish. Cells were passed with collagenase. […] Real-time PCR results (FIG. 39) confirm that formation of definitive endoderm was equivalent on fibronectin and […]™ coated plates.
# To determine if the addition of Wnt-3a was causing the increase in differentiation, an inhibitor of Wnt-3 signaling was added to the cultures. […] H9 cells were cultured on plates coated with Growth Factor Reduced […] at a 1:30 dilution. The plates were coated with […] for 1 hr at room temperature. […]
# [2] = system: human embryonic stem cell line H9; assay: Real-time PCR of marker gene expression, H9 on MEF (Examples 2-7); format: cell-based
# Description: Cells were harvested at the time points indicated in FIG. 3 and assayed by PCR for the expression of genes shown (FIGS. 3, 4 and 5).
# After this time interval, the cells were then treated for six days with combinations of retinoic acid and FGF as outlined in Example 2, then the culture medium was removed and replaced with medium comprising DMEM/F12 with 2% FBS, containing the γ-secretase inhibitors L-685,458 at 10 μM for three days.
# Cells were continuously cultured for another 3 to 5 days in basal medium with retinoic acid at 1 μM, alone or with bFGF. RNA samples were harvested from cells at various time points along this process to help evaluate the directed differentiation of the cells. Furthermore, culture medium and factors were regularly removed and replenished throughout the differentiation protocol.
# RNA extraction, purification, and cDNA synthesis. RNA samples were purified by binding to a silica-gel membrane (Rneasy Mini Kit, Qiagen, CA) in the presence of an ethanol-containing, high-salt buffer followed by washing to remove contaminants. The RNA was further purified using a TURBO DNA-free kit (Ambion, INC), and high-quality RNA was then eluted in water. Yield and purity were assessed by A260 and A280 readings on a spectrophotometer. cDNA copies were made from purified RNA using an ABI (ABI, CA) high capacity cDNA archive kit.
# as §1, §2
molecule,measurement,setting,value
Group 9: IL-4 (10 ng/ml),CXCR4 relative expression,H9P44 cells,1.4
same,Goosecoid relative expression,H9P44 cells,0.9
same,HNF-3B relative expression,H9P44 cells,0.89
same,Oct-4 relative expression,H9P44 cells,0.85
same,SOX-2 relative expression,H9P44 cells,1.2
same,Sox17 relative expression,H9P44 cells,1
fibronectin,formation of definitive endoderm (real-time PCR),"[1]; H9P55, fibronectin vs MATRIGEL coated plates",equivalent
"CC(C)C[C@H](NC(=O)[C@H](Cc1ccccc1)C[C@@H](O)[C@H](Cc1ccccc1)NC(=O)OC(C)(C)C)C(=O)N[C@@H](Cc1ccccc1)C(N)=O [L-685,458, reference compound]",NeuroD1 expression,"[2]; L-685,458 10 μM for three days",increased further
same,expression of Ngn3 versus activin A alone or retinoic acid with FGFs,"[2]; L-685,458 10 μM for three days",approximately 50 fold
same,increase of insulin expression,"[2]; L-685,458 10 μM for three days",70 fold
same,expression of Hes-1,"[2]; L-685,458 10 μM, maximal inhibition on day three",decrease
B1,definitive endoderm markers (real-time PCR),[1],minimal impact
B2,"expression level of differentiation markers (CXCR4, GATA4, HNF-3beta, SOX17, goosecoid)","[1]; H9, 100 ng/ml DKK1 with 20 ng/ml Wnt3a and 100 ng/ml activin A, day 5",dramatically decrease
B3,mesoderm marker BRY,"[1]; H9P53, BMP-4 25 ng/ml added to the DE protocol",induce formation
B4,definitive endoderm markers (real-time PCR),[1],minimal impact
B5,definitive endoderm markers (real-time PCR),[1],minimal impact
